# PMC11050067, “Development of a Novel, Potent, and Selective Sialyltransferase Inhibitor for Suppressing Cancer Metastasis” (International Journal of Molecular Sciences, 2024)
# How the values were obtained:
# ST3GAL3 = target: T1, ST3GAL3 (Homo sapiens, UniProt Q11203); assay: phosphatase-coupled sialyltransferase activity assay (EA002 kit) with recombinant enzyme; format: biochemical
# T1 construct: recombinant Human ST3GAL3 (R&D systems #10554-GT)
# T1 sequence (Q11203 1-375): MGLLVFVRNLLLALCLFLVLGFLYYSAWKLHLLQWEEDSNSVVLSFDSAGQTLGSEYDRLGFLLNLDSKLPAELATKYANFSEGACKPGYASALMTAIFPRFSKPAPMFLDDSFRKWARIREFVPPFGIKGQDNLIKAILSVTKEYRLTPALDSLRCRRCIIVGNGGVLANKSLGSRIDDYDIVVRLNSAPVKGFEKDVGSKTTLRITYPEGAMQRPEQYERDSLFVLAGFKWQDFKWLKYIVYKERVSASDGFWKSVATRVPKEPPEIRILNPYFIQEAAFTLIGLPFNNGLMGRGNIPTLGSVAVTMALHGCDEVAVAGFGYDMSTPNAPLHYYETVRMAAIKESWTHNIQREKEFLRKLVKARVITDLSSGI
# ST6GAL1 = target: T2, ST6GAL1 (Homo sapiens, UniProt P15907); assay: HPLC assay of sialylation of Galβ[…]-4GlcNAc with CMP-Neu5Ac by recombinant enzyme; format: biochemical
# T2 construct: recombinant Human ST6GAL1 (R&D systems #7620-GT)
# T2 sequence (P15907 27-406): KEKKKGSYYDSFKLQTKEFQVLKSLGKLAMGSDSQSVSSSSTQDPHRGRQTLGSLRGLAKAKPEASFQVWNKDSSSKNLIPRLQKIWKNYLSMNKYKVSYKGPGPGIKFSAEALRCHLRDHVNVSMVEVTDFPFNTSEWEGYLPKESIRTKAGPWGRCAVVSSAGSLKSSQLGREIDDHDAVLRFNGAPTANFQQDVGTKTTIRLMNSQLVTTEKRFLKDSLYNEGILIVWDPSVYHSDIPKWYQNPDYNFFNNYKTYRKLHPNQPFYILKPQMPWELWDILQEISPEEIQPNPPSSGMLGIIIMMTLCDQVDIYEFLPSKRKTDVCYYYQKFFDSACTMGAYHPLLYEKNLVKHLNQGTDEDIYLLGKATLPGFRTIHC
structure (smiles),measurement,setting,value
C[C@H](CCC(=O)OCCOCCOCCN=[N+]=[N-])C1CCC2C3CC[C@@H]4C[C@H](NC(=O)[C@H](CC(=O)O)Nc5ccc([N+](=O)[O-])c6nonc56)CC[C@]4(C)C3CC[C@@]21C (some centres unmarked) [FCW393],IC50,ST3GAL3,9.45 ± 0.11 µM
same,IC50,ST6GAL1,7.76 ± 0.06 µM
